Source: patent US10406239B2, “Water-soluble docetaxel anticancer drug compound and preparation method and use thereof” (NANJING YOUYI MEDICAL TECHNOLOGY CO., LTD, priority 2015, dated 2019)
Marks after values point to notes of the source that are not given here.

Legend:
[1] = Effect on body weight of nude mice with A549 human lung cancer xenografts; type: in vivo, BALB/c nude mice; conditions: for Initial body weight: before dosing; for Final body weight: once every 3 days, end of study (21 days)
Description: (§1) The dose volume was 0.4 ml per 20 g, that is, the dose was 96 mg/kg. Then, the solution was diluted to other desired concentrations with 0.9% sodium chloride solution.
(§2) Docetaxel injection, manufactured by Jiangsu Hengrui Pharmaceutical Co., Ltd., lot number: 15011215, specification: 0.5 ml: 20 mg. Formulation method: during use, 20 mg of docetaxel injection of the above specification was added to 1.5 ml of a solvent for the docetaxel injection to give a concentration of 10 mg/ml, and then fully diluted with saline to 1 mg/ml. The dose volume was 0.2 ml per 20 g, that is, the dose was 10 mg/kg.
(§3) BALB/c nude mice, provided by Changzhou Kavens Laboratory Animal Co., Ltd. (Experimental Animal Production License: SOCK (Su) 2011-0003), age: 35-40 days, weight: 18-24 g, female.
(§4) Human lung cancer A549 cell line in logarithmic growth phase was prepared into a cell suspension of 1×10^8 cells/ml under aseptic conditions and subcutaneously inoculated to the right axillary fossa of nude mice in a volume of 0.1 ml. The size of the xenograft in the nude mice was measured with a vernier caliper. After the xenografts grew to 100-300 mm^3, the animals were randomly grouped. The anti-tumor effect of the test agents was dynamically observed by measuring the size of the xenografts. The size of the xenografts was measured once every 3 days. The dose volume was 0.4 ml/20 g. Twenty-one days later, the mice were sacrificed and the tumors were surgically excised and weighed. The tumor volume (TV) is calculated by a formula below: TV=½×a×b^2

[2] = system: A549 human lung cancer xenografts; assay: Growth inhibition on A549 human lung cancer xenografts in nude mice; type: in vivo, BALB/c nude mice; conditions: for Tumor inhibition rate: by tumor weight; for Tumor weight: tumors excised after 21 days
Description: as §1, §2, §3
A549 human lung cancer xenografts in nude mice was established by inoculating human lung cancer A549 cell line subcutaneously to the axillary fossa of nude mice in an amount of 2*10^6 cells/animal.
as §4
The relative tumor volume (RTV) is calculated based on the measurements by a formula: RTV=Vt/V0, where V0 is the measured tumor volume upon being caged (i.e., d0) and Vt is the tumor volume at each measurement. The evaluation index of the anti-tumor activity is relative tumor growth rate T/C (%), which is calculated by a formula below: […]
in which TRTV is the RTV of the treatment group; and CRTV is the RTV of the negative control group.
The tumor inhibition rate is calculated by a formula below: […]
Tweight is the average tumor weight of the treatment group; and Cweight is the average tumor weight of the negative control group.

[3] = XBB-023 24 mg/kg, tail vein, once every 3 days, 7 doses, 21 d
[4] = XBB-023 24 mg/kg, tail vein, once every 3 days, 3 d
[5] = XBB-023 24 mg/kg, tail vein, once every 3 days, 6 d
[6] = XBB-023 24 mg/kg, tail vein, once every 3 days, 9 d
[7] = XBB-023 24 mg/kg, tail vein, once every 3 days, 12 d
[8] = XBB-023 24 mg/kg, tail vein, once every 3 days, 15 d
[9] = XBB-023 24 mg/kg, tail vein, once every 3 days, 18 d
[10] = XBB-023 48 mg/kg, tail vein, once every 3 days, 7 doses, 21 d
[11] = XBB-023 48 mg/kg, tail vein, once every 3 days, 3 d
[12] = XBB-023 48 mg/kg, tail vein, once every 3 days, 6 d
[13] = XBB-023 48 mg/kg, tail vein, once every 3 days, 9 d
[14] = XBB-023 48 mg/kg, tail vein, once every 3 days, 12 d
[15] = XBB-023 48 mg/kg, tail vein, once every 3 days, 15 d
[16] = XBB-023 48 mg/kg, tail vein, once every 3 days, 18 d
[17] = XBB-023 96 mg/kg, tail vein, once every 3 days, 7 doses, 21 d
[18] = XBB-023 96 mg/kg, tail vein, once every 3 days, 3 d
[19] = XBB-023 96 mg/kg, tail vein, once every 3 days, 6 d
[20] = XBB-023 96 mg/kg, tail vein, once every 3 days, 9 d
[21] = XBB-023 96 mg/kg, tail vein, once every 3 days, 12 d
[22] = XBB-023 96 mg/kg, tail vein, once every 3 days, 15 d
[23] = XBB-023 96 mg/kg, tail vein, once every 3 days, 18 d

In the case of “Polyethylene Glycol Monomethyl Ether (Mn=1000) Docetaxel-2′-Diglycolate [XBB-023]”, the “effect on the body weight of the experimental mice (in words)” value ([1]; 48 mg/kg XBB-023, P<0.05) is reported as “significant effect”, the “effect on the body weight of the experimental mice (in words)” value ([1]; 96 mg/kg XBB-023, P<0.01) is reported as “Extremely significant effect” and the Initial body weight ([1]; XBB-023 24 mg/kg group) is reported as 22.17 ± 1.57 g. The Final body weight ([1]; XBB-023 24 mg/kg) was 23.17 ± 0.90 g, the Initial body weight ([1]; XBB-023 48 mg/kg group) was 21.33 ± 1.37 g and the Final body weight ([1]; XBB-023 48 mg/kg) was 20.00 ± 0.82 g. The Initial body weight ([1]; XBB-023 96 mg/kg group) was 22.00 ± 0.82 g, the Final body weight ([1]; XBB-023 96 mg/kg) was 16.00 ± 2.31 g and the Tumor volume ([2]; XBB-023 24 mg/kg group, 0 d (baseline)) was 101.08 ± 20.73 mm^3. The Tumor inhibition rate ([2]; XBB-023 24 mg/kg, once every 3 days, 7 doses, 24 mg/kg) was 34.73%, the Tumor weight ([2]; XBB-023 24 mg/kg, once every 3 days) was 0.78 ± 0.22 g and the “RTV (relative tumor volume)” value [2, 3] was 6.39 ± 0.81. The Tumor volume [2, 3] was 660.00 ± 210.71* mm^3, the “T/C (relative tumor growth rate)” value ([2]; XBB-023 24 mg/kg, tail vein, once every 3 days, 7 doses, 21 d, 24 mg/kg) was 56.30% and the “RTV (relative tumor volume)” value [2, 4] was 2.27 ± 0.52. The “T/C (relative tumor growth rate)” value [2, 4] was 78.90%, the Tumor volume [2, 4] was 232.16 ± 79.30* mm^3 and the “RTV (relative tumor volume)” value [2, 5] was 2.38 ± 0.37. The “T/C (relative tumor growth rate)” value [2, 5] was 66.13%, the Tumor volume [2, 5] was 244.45 ± 80.88** mm^3 and the “RTV (relative tumor volume)” value [2, 6] was 2.85 ± 0.39. The “T/C (relative tumor growth rate)” value [2, 6] was 61.19%, the Tumor volume [2, 6] was 289.34 ± 82.35** mm^3 and the “RTV (relative tumor volume)” value [2, 7] was 3.68 ± 0.51. The “T/C (relative tumor growth rate)” value [2, 7] was 57.80%, the Tumor volume [2, 7] was 371.41 ± 95.01** mm^3 and the “RTV (relative tumor volume)” value [2, 8] was 4.91 ± 1.58. The “T/C (relative tumor growth rate)” value [2, 8] was 58.72%, the Tumor volume [2, 8] was 522.84 ± 249.70* mm^3 and the “RTV (relative tumor volume)” value [2, 9] was 5.68 ± 1.66. The “T/C (relative tumor growth rate)” value [2, 9] was 58.60%, the Tumor volume [2, 9] was 602.28 ± 288.50** mm^3 and the Tumor volume ([2]; XBB-023 48 mg/kg group, 0 d (baseline)) was 101.49 ± 18.47 mm^3. The Tumor inhibition rate ([2]; XBB-023 48 mg/kg, once every 3 days, 7 doses, 48 mg/kg) was 68.55%, the Tumor weight ([2]; XBB-023 48 mg/kg, once every 3 days) was 0.38 ± 0.14 g and the “RTV (relative tumor volume)” value [2, 10] was 2.90 ± 0.37. The Tumor volume [2, 10] was 299.13 ± 86.76** mm^3, the “T/C (relative tumor growth rate)” value ([2]; XBB-023 48 mg/kg, tail vein, once every 3 days, 7 doses, 21 d, 48 mg/kg) was 25.56% and the “RTV (relative tumor volume)” value [2, 11] was 1.59 ± 0.35. The “T/C (relative tumor growth rate)” value [2, 11] was 55.23%, the Tumor volume [2, 11] was 159.57 ± 38.77** mm^3 and the “RTV (relative tumor volume)” value [2, 12] was 1.80 ± 0.18. For the same substance, the “T/C (relative tumor growth rate)” value [2, 12] was 49.90%, the Tumor volume [2, 12] was 180.89 ± 31.39** mm^3 and the “T/C (relative tumor growth rate)” value [2, 13] was 52.80%. For the same substance, the Tumor volume [2, 13] was 245.14 ± 40.82** mm^3, the “RTV (relative tumor volume)” value [2, 14] was 3.02 ± 0.53 and the “T/C (relative tumor growth rate)” value [2, 14] was 47.50%. For the same substance, the Tumor volume [2, 14] was 302.66 ± 60.48 mm^3, the “RTV (relative tumor volume)” value [2, 15] was 2.61 ± 0.47 and the “T/C (relative tumor growth rate)” value [2, 15] was 31.23%. For the same substance, the Tumor volume [2, 15] was 264.78 ± 68.29** mm^3, the “RTV (relative tumor volume)” value [2, 16] was 2.50 ± 0.37 and the “T/C (relative tumor growth rate)” value [2, 16] was 25.76%. For the same substance, the Tumor volume [2, 16] was 257.22 ± 76.37** mm^3, the Tumor volume ([2]; XBB-023 96 mg/kg group, 0 d (baseline)) was 102.83 ± 14.74 mm^3 and the “inhibition rate higher than that in the positive control group” value ([2]; XBB-023 96 mg/kg versus 10 mg/kg docetaxel) was 16.29%. The Tumor inhibition rate ([2]; XBB-023 96 mg/kg, once every 3 days, 7 doses, 96 mg/kg) was 88.45%, the Tumor weight ([2]; XBB-023 96 mg/kg, once every 3 days) was 0.14 ± 0.03 g and the “RTV (relative tumor volume)” value [2, 17] was 1.46 ± 0.32. The Tumor volume [2, 17] was 146.15 ± 20.51** mm^3, the “T/C (relative tumor growth rate)” value ([2]; XBB-023 96 mg/kg, tail vein, once every 3 days, 7 doses, 21 d, 96 mg/kg) was 12.83% and the “RTV (relative tumor volume)” value [2, 18] was 1.54 ± 0.31. The “T/C (relative tumor growth rate)” value [2, 18] was 53.47%, the Tumor volume [2, 18] was 154.44 ± 15.73** mm^3 and the “RTV (relative tumor volume)” value [2, 19] was 1.26 ± 0.15. For the same substance, the “T/C (relative tumor growth rate)” value [2, 19] was 35.11%, the Tumor volume [2, 19] was 129.15 ± 19.29** mm^3 and the “RTV (relative tumor volume)” value [2, 20] was 1.54 ± 0.22. For the same substance, the “T/C (relative tumor growth rate)” value [2, 20] was 33.18%, the Tumor volume [2, 20] was 15628 ± 17.71** mm^3 and the “RTV (relative tumor volume)” value [2, 21] was 1.54 ± 0.33. For the same substance, the “T/C (relative tumor growth rate)” value [2, 21] was 24.19%, the Tumor volume [2, 21] was 156.91 ± 35.05** mm^3 and the “RTV (relative tumor volume)” value [2, 22] was 1.06 ± 0.28. The “T/C (relative tumor growth rate)” value [2, 22] was 12.63%, the Tumor volume [2, 22] was 107.31 ± 27.45** mm^3 and the “RTV (relative tumor volume)” value [2, 23] was 1.13 ± 0.21. The “T/C (relative tumor growth rate)” value [2, 23] was 11.66% and the Tumor volume [2, 23] was 114.16 ± 17.61** mm^3.
